Measured values as given in patent US20230061116A1, “TARGETING PAR1 AND PAR2 TO REGULATE LIPID AND CHOLESTEROL ABUNDANCE” (Mayo Foundation for Medical Education and Research, priority 2020, published 2023).

B1: BDNF: subtherapeutic growth factor BDNF (protein, UniProt P23560 19-247, looked up)
Neurotrophic factor BDNF …: APMKEANIRGQGGLAYPGVRTHGTLESVNGPKAGSRGLTSLADTFEHVIEELLDEDQKVRPNEENNKDADLYTSRVMLSSQVPLEPPLLFLLEEYKNYLDAANMSMRVRRHSDPARRGELSVCDSISEWVTAADKKTAVDMSGGTVTVLEKVPVSKGQLKQYFYETKCNPMGYTKEGCRGIDKRHWNSQCRTTQSYVRALTMDSKKRIGWRFIRIDTSCVCTLTIKRGR

Legend:
HMGCS1 = HMGCS1 expression in primary cortical neurons (real-time quantitative PCR); assay type: cell-based, murine
Experimental: FIG. 3 is a graph plotting HMGCS1 expression in cultures of primary cortical neurons treated with the PAR1 small molecule inhibitor Vorapaxar (100 nM) or vehicle control for 72 hours.
Expression of HMGCS1, an enzyme responsible for production of HMGCoA for the rate-limiting step in cholesterol biosynthesis, was quantified by real-time quantitative PCR.
HMGCS1 is responsible for production of HMGCoA for the rate-limiting step in cholesterol biosynthesis.

[1] = tested on: primary mouse cortical neurons; test: Neurite outgrowth (TUJ1+ area) in primary cortical neurons; assay type: cell-based; conditions: co-treatment with subtherapeutic BDNF; 24 and 72 hours of treatment (FIG. 12)
Experimental: FIG. 12 contains a series of images showing that inhibition of PAR1 signaling accelerates neurite outgrowth in primary mouse cortical neurons. Murine neurons were cultured for 24 hours before addition of the PAR1 inhibitor Vorapaxar, subtherapeutic growth factor BDNF, or both. […] Neurite outgrowth was quantified by staining for TUJI (a cytoskeletal protein present in both axons and dendrites) and measuring TUJI+ area (the average of 5 randomly selected fields per well, 6 wells per treatment). Production of lipids and cholesterol, major constituents of neuronal membranes, was required to grow both axons and dendrites. Results are plotted in the graphs in the right panel (*P<0,05 SNK, n=6 all groups, both timepoints). […] Murine neurons were cultured for 24 hours before addition of the PAR1 inhibitor Vorapaxar, subtherapeutic growth factor BDNF, or both. […] Neurite outgrowth was quantified by staining for TUJ1 (a cytoskeletal protein present in both axons and dendrites) and measuring TUJ1+ area (the average of 5 randomly selected fields per well, 6 wells per treatment). Production of lipids and cholesterol, major constituents of neuronal membranes, was required to grow both axons and dendrites.

[2] = tested on: primary mouse cortical neurons; test: Synaptogenesis (Homer puncta per TUJ1+ area) in primary cortical neurons; assay type: cell-based; conditions: co-treatment with subtherapeutic BDNF; 24 and 72 hours of treatment (FIG. 13)
Experimental: FIG. 13 contains images showing that inhibition of PAR1 signaling accelerates synaptogenesis in primary mouse cortical neurons. Murine neurons were cultured in vitro for 24 hours before addition of the PAR1 inhibitor Vorapaxar, subtherapeutic growth factor BDNF, Or both. […] Synapse density was quantified by staining for Homer, a scaffold protein concentrated at the post-synaptic densities by counting puncta in ImageJ. Synapse counts were normalized by total neurite area (TUJ1+ area) to determine the density of synapses on neurites (average of 5 randomly selected fields per well, 6 wells per treatment). Results are plotted in the graphs in the right panel *P<0.05 SNK, n=6 all groups, both timepoints). Inhibition of PAR1 signaling also accelerated synaptogenesis in primary mouse cortical neurons (FIG. 13). Murine neurons were cultured in vitro for 24 hours before addition of the PAR1 inhibitor Vorapaxar, subtherapeutic growth factor BDNF, or both. […] Synapse density was quantified by staining for Homer, a scaffold protein concentrated at the post-synaptic densities by counting puncta in ImageJ. Synapse counts were normalized by total neurite area (TUJ1+ area) to determine the density of synapses on neurites (average of 5 randomly selected fields per well, 6 wells per treatment).

Murine neurons = test: Growth of new neurites after transection (scratch) injury in vitro; assay type: cell-based, mouse; conditions: co-treatment with subtherapeutic BDNF, added following scratch injury (FIG. 14)
Experimental: FIG. 14 contains a series of images showing that inhibition of PAR1 signaling accelerates growth of new neurites following transection injury in vitro. Murine neurons were cultured in vitro to confluence, and then a large wound was created by mechanically scratching the center of each field. The PAR1 inhibitor Vorapaxar, subtherapeutic growth factor BDNF, or both were added following injury. […] Results are plotted in the graph in the right panel (*P<0.05 SNK, n=6 all groups). Inhibition of PAR1 signaling accelerated growth of new neurites following transection injury in vitro (FIG. 14). Murine neurons were cultured in vitro to confluence, and then a large wound was created by mechanically scratching the center of each field. The PAR1 inhibitor Vorapaxar, subtherapeutic growth factor […], or both were added following injury.

[3] = tested on: primary mouse cortical neurons; test: Neurite outgrowth under statin inhibition of cholesterol production; assay type: cell-based; conditions: statin-treated cultures
Excerpt: Neurite outgrowth was quantified by staining for TUJ1 (a cytoskeletal protein present in both axons and dendrites) and measuring TUJ1+ area (the average of 5 randomly selected fields per well, 6 wells per treatment). *P<0.05 SNK, n=6 all groups.
Neurite outgrowth was quantified by staining for TUJ1 (a cytoskeletal protein present in both axons and dendrites) and measuring TUJ1+ area (the average of 5 randomly selected fields per well, 6 wells per treatment).

SH-SY5Y cells = test: Cellular cholesterol content, amplex red colorimetric assay; assay type: cell-based, human; conditions: 100 nM, 72 hours (FIG. 22)
Experimental: FIG. 22 is a graph plotting human neuronal (SH-SY5Y) cells grown in the presence of the small molecule PAR1 inhibitor, Vorapaxar (“Vora,” at 100 nM) or control for 72 hours. […] Cholesterol content was quantified by the amplex red colorimetric assay. Finally, cholesterol levels were evaluated in a human neuronal cell line (SH-SY5Y cells) grown in the presence of the small molecule PAR1 inhibitor, Vorapaxar, for 72 hours.

| Molecule | HMGCS1 expression (HMGCS1; primary cortical neurons, 100 nM, 72 hours, vs vehicle-treated controls (FIG. 3)) | expression of HMGCS1 (real-time quantitative PCR) (HMGCS1; primary murine cortical neurons, with or without co-treatment with BDNF (FIG. 15)) | production of neurites (TUJ1+ area) [1] | production of synaptic densities (Homer puncta normalized by TUJ1+ area) [2] | growth of new neurites through the injury zone (TUJ1+ area in the scratch) (Murine neurons) | recovery of neurite production (TUJ1+ area) from statin treatment ([3]; agent alone (FIG. 16)) | recovery of neurite production (TUJ1+ area) from statin treatment ([3]; co-treatment of PAR1 inhibitor with subtherapeutic BDNF (FIG. 16)) | cellular cholesterol vs untreated cells (SH-SY5Y cells) |
| --- | --- | --- | --- | --- | --- | --- | --- | --- |
| CCOC(=O)N[C@@H]1CC[C@@H]2[C@@H](C1)C[C@H]1C(=O)O[C@H](C)[C@H]1[C@H]2/C=C/c1ccc(-c2cccc(F)c2)cn1 [Vorapaxar] | promoted increases in HMGCS1 expression | increased the expression of HMGCS1 | potentiated the effect of BDNF, significantly increasing production of neurites | potentiated the effect of BDNF, significantly increasing production of synaptic densities | potentiated the effect of BDNF, significantly increasing growth of new neurites through the injury zone | did not result in recovery of neurite production | partially rescued neurite production from statin treatment | more than twice the amount of cellular cholesterol |
| B1 |  |  |  |  |  | did not result in recovery of neurite production |  |  |
